Experiment in all cases: relative viability (nuclei count vs DMSO), 5 days (fraction); higher = more cells survive
Compound in test [1]: CN[C@@H]1C[C@H]2O[C@@](C)([C@@H]1OC)n1c3ccccc3c3c4c(c5c6ccccc6n2c5c31)C(=O)NC4 [Staurosporine] + C[C@]1(O)C[C@@H](c2nc(-c3ccc4ccc(-c5ccccc5)nc4c3)c3c(N)nccn32)C1 [Linsitinib] (partner 1 µM)
The essentials:
(§1)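 Lung cancer cell lines in 1536-well plates were dosed by pin tool the day after seeding, either with one drug alone or with a fixed anchor-drug dose plus five library-drug doses (not always all listed) in √10 steps. After 5 days, cells were fixed and their nuclei stained in one step (final 0.05% Triton X-100, 1% formaldehyde, 1 ug/ml Hoechst), then counted on 4× images. Relative viability is the nuclei count in treated wells divided by that in vehicle wells. Values are medians of duplicate plates.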

Compound in the test “5-Fluorouracil + OSI-027”: O=c1[nH]cc(F)c(=O)[nH]1 [5-Fluorouracil] + COc1cccc2cc(-c3nc([C@H]4CC[C@H](C(=O)O)CC4)n4ncnc(N)c34)[nH]c12 [OSI-027] (partner 0.5 µM)
The essentials: as §1

Compound in the test “Sulindac + Palbociclib”: CC1=C(CC(=O)O)c2cc(F)ccc2/C1=C\c1ccc([S+](C)[O-])cc1 [Sulindac] + CC(=O)c1c(C)c2cnc(Nc3ccc(N4CCNCC4)cn3)nc2n(C2CCCC2)c1=O [Palbociclib] (partner 0.5 µM)
The method in brief:
as §1

Compound in the test “Sulindac + Bortezomib”: CC1=C(CC(=O)O)c2cc(F)ccc2/C1=C\c1ccc([S+](C)[O-])cc1 [Sulindac] + CC(C)C[C@H](NC(=O)[C@H](Cc1ccccc1)NC(=O)c1cnccn1)B(O)O [Bortezomib] (partner 0.002 µM)
The essentials:
as §1

This is an account of results in the supplement of paper PMC10307832.

With 201T, the relative viability in test [1] (first compound 0.005 µM) came out at 1.02; in test [1] (first compound 0.01581 µM) it was 1; in test [1] (first compound 0.05 µM), 0.814; in test [1] (first compound 0.1581 µM), 0.688; in test [1] (first compound 0.5 µM), 0.575; in the test with 5-Fluorouracil + OSI-027 (first compound 0.02 µM), 0.964. The relative viability with 5-Fluorouracil + OSI-027 (first compound 0.2 µM) came to 0.274; with 5-Fluorouracil + OSI-027 (first compound 0.6325 µM) it was 0.161; with 5-Fluorouracil + OSI-027 (first compound 2 µM) it was 0.128; in the test with Sulindac + Palbociclib (first compound 0.08 µM), 0.338; with Sulindac + Palbociclib (first compound 0.253 µM), 0.359; with Sulindac + Palbociclib (first compound 0.8 µM) it was 0.386. Further, the relative viability is 0.355 with Sulindac + Palbociclib (first compound 2.53 µM); 0.38 in the test with Sulindac + Palbociclib (first compound 8 µM); 1.12 in the test with Sulindac + Bortezomib (first compound 0.08 µM); 1.1 in the test with Sulindac + Bortezomib (first compound 0.253 µM); 1.06 with Sulindac + Bortezomib (first compound 0.8 µM); 1.12 with Sulindac + Bortezomib (first compound 2.53 µM). For the same cell line, in the test with Sulindac + Bortezomib (first compound 8 µM), the relative viability was 1.08.
Take A549: the relative viability in test [1] (first compound 0.005 µM) was 0.366; in test [1] (first compound 0.01581 µM) it was 0.227; in test [1] (first compound 0.05 µM) it was 0.0839; in test [1] (first compound 0.1581 µM), 0.0873; in test [1] (first compound 0.5 µM), 0.0598.
A-427: the relative viability was found to be 1.05 in test [1] (first compound 0.005 µM); 0.43 in test [1] (first compound 0.05 µM); 0.313 in test [1] (first compound 0.1581 µM); 0.189 in test [1] (first compound 0.5 µM); 0.461 with 5-Fluorouracil + OSI-027 (first compound 0.02 µM); 0.557 with 5-Fluorouracil + OSI-027 (first compound 0.2 µM). The relative viability with 5-Fluorouracil + OSI-027 (first compound 0.6325 µM) came to 0.359; in the test with 5-Fluorouracil + OSI-027 (first compound 2 µM), 0.259; with Sulindac + Palbociclib (first compound 0.08 µM), 0.486; with Sulindac + Palbociclib (first compound 0.253 µM), 0.548; with Sulindac + Palbociclib (first compound 0.8 µM), 0.495; with Sulindac + Palbociclib (first compound 2.53 µM) it was 0.473. The relative viability in the test with Sulindac + Palbociclib (first compound 8 µM) turned out to be 0.565; in the test with Sulindac + Bortezomib (first compound 0.08 µM) it was 0.899; with Sulindac + Bortezomib (first compound 0.253 µM) it was 0.976; in the test with Sulindac + Bortezomib (first compound 0.8 µM) it was 1.08; with Sulindac + Bortezomib (first compound 2.53 µM) it was 0.965; in the test with Sulindac + Bortezomib (first compound 8 µM), 1.17.
Turning to Calu-6, the relative viability in test [1] (first compound 0.005 µM) was 0.92; in test [1] (first compound 0.01581 µM), 0.776; in test [1] (first compound 0.05 µM) it was 0.3; in test [1] (first compound 0.1581 µM), 0.0858; in test [1] (first compound 0.5 µM), 0.0592; in the test with Sulindac + Bortezomib (first compound 0.08 µM), 1.11. Moreover, the relative viability was determined as 1.14 with Sulindac + Bortezomib (first compound 0.253 µM), 0.915 in the test with Sulindac + Bortezomib (first compound 0.8 µM), 1.02 in the test with Sulindac + Bortezomib (first compound 2.53 µM) and 1.13 in the test with Sulindac + Bortezomib (first compound 8 µM).
Take ChaGo-K-1: the relative viability with 5-Fluorouracil + OSI-027 (first compound 0.02 µM) was 0.608; with 5-Fluorouracil + OSI-027 (first compound 0.2 µM), 0.536; with 5-Fluorouracil + OSI-027 (first compound 0.6325 µM), 0.401; with 5-Fluorouracil + OSI-027 (first compound 2 µM) it was 0.425; with Sulindac + Palbociclib (first compound 0.08 µM) it was 1.09; with Sulindac + Palbociclib (first compound 0.253 µM) it was 0.918. Also, the relative viability with Sulindac + Palbociclib (first compound 0.8 µM) worked out at 0.838; with Sulindac + Palbociclib (first compound 2.53 µM) it was 0.924; with Sulindac + Palbociclib (first compound 8 µM), 0.988; with Sulindac + Bortezomib (first compound 0.08 µM) it was 1.07; with Sulindac + Bortezomib (first compound 0.253 µM), 1.1; with Sulindac + Bortezomib (first compound 0.8 µM) it was 0.885. The results for the relative viability with Sulindac + Bortezomib (first compound 2.53 µM) and with Sulindac + Bortezomib (first compound 8 µM) were 0.882 and 1.35, respectively.
Consider EBC-1, for which the relative viability in test [1] (first compound 0.005 µM) was 0.738; in test [1] (first compound 0.01581 µM) it was 0.523; in test [1] (first compound 0.05 µM), 0.181; in test [1] (first compound 0.1581 µM), 0.122; in test [1] (first compound 0.5 µM) it was 0.111; in the test with Sulindac + Bortezomib (first compound 0.08 µM) it was 0.585. For the same cell line, the relative viability with Sulindac + Bortezomib (first compound 0.253 µM) turned out to be 0.557; with Sulindac + Bortezomib (first compound 0.8 µM), 0.56; with Sulindac + Bortezomib (first compound 2.53 µM), 0.474; with Sulindac + Bortezomib (first compound 8 µM) it was 0.663.
For the cell line IA-LM, the relative viability in test [1] (first compound 0.01581 µM) was 0.271; in test [1] (first compound 0.05 µM), 0.16; in test [1] (first compound 0.1581 µM), 0.128; in test [1] (first compound 0.5 µM), 0.07; in the test with Sulindac + Bortezomib (first compound 0.08 µM), 0.811; with Sulindac + Bortezomib (first compound 0.253 µM), 0.91. Moreover, the relative viability came to 0.977 in the test with Sulindac + Bortezomib (first compound 2.53 µM) and 0.89 with Sulindac + Bortezomib (first compound 8 µM).
Regarding LK-2, the relative viability turned out to be 0.698 in test [1] (first compound 0.005 µM); 0.506 in test [1] (first compound 0.01581 µM); 0.753 in test [1] (first compound 0.05 µM); 0.473 in test [1] (first compound 0.1581 µM); 0.154 in test [1] (first compound 0.5 µM); 0.196 with 5-Fluorouracil + OSI-027 (first compound 0.02 µM). In addition, the relative viability with 5-Fluorouracil + OSI-027 (first compound 0.2 µM) is 0.188; with 5-Fluorouracil + OSI-027 (first compound 0.6325 µM), 0.199; with 5-Fluorouracil + OSI-027 (first compound 2 µM), 0.165; with Sulindac + Palbociclib (first compound 0.08 µM) it was 0.879; in the test with Sulindac + Palbociclib (first compound 0.253 µM), 0.624; with Sulindac + Palbociclib (first compound 0.8 µM), 0.496. For the same cell line, the relative viability with Sulindac + Palbociclib (first compound 2.53 µM) was determined as 0.369; with Sulindac + Palbociclib (first compound 8 µM), 0.88.
NCI-H358: the relative viability in test [1] (first compound 0.005 µM) came out at 0.573; in test [1] (first compound 0.01581 µM), 0.281; in test [1] (first compound 0.05 µM), 0.189; in test [1] (first compound 0.1581 µM), 0.152; in test [1] (first compound 0.5 µM) it was 0.122; with 5-Fluorouracil + OSI-027 (first compound 0.02 µM), 0.819. Moreover, the relative viability with 5-Fluorouracil + OSI-027 (first compound 0.2 µM) amounted to 0.888; with 5-Fluorouracil + OSI-027 (first compound 0.6325 µM) it was 0.508; with 5-Fluorouracil + OSI-027 (first compound 2 µM), 0.289; in the test with Sulindac + Palbociclib (first compound 0.08 µM) it was 0.135; with Sulindac + Palbociclib (first compound 0.253 µM) it was 0.139; with Sulindac + Palbociclib (first compound 0.8 µM), 0.129. For the same cell line, the relative viability with Sulindac + Palbociclib (first compound 2.53 µM) worked out at 0.139; in the test with Sulindac + Palbociclib (first compound 8 µM), 0.136.
NCI-H522: the relative viability is 0.714 with 5-Fluorouracil + OSI-027 (first compound 0.02 µM); 0.714 in the test with 5-Fluorouracil + OSI-027 (first compound 0.2 µM); 0.722 with 5-Fluorouracil + OSI-027 (first compound 0.6325 µM); 0.705 in the test with 5-Fluorouracil + OSI-027 (first compound 2 µM); 0.972 in the test with Sulindac + Palbociclib (first compound 0.08 µM); 0.955 in the test with Sulindac + Palbociclib (first compound 0.253 µM). Also, the relative viability with Sulindac + Palbociclib (first compound 0.8 µM) came to 0.818; with Sulindac + Palbociclib (first compound 2.53 µM), 1.17; in the test with Sulindac + Palbociclib (first compound 8 µM), 1.04.
Consider NCI-H596, for which the relative viability came out at 1.34 in test [1] (first compound 0.005 µM); 0.854 in test [1] (first compound 0.01581 µM); 0.854 in test [1] (first compound 0.05 µM); 0.385 in test [1] (first compound 0.1581 µM); 0.148 in test [1] (first compound 0.5 µM); 0.832 in the test with 5-Fluorouracil + OSI-027 (first compound 0.02 µM). The relative viability with 5-Fluorouracil + OSI-027 (first compound 0.2 µM) was 0.82; with 5-Fluorouracil + OSI-027 (first compound 0.6325 µM), 0.623; in the test with 5-Fluorouracil + OSI-027 (first compound 2 µM), 0.337; with Sulindac + Bortezomib (first compound 0.08 µM) it was 1.04; with Sulindac + Bortezomib (first compound 0.253 µM), 1.08; with Sulindac + Bortezomib (first compound 0.8 µM), 0.831. The results for the relative viability in the test with Sulindac + Bortezomib (first compound 2.53 µM) and with Sulindac + Bortezomib (first compound 8 µM) were 1 and 1.21, respectively.
